Test results published in patent US20120058236A1, “SWEETENER COMPOSITION COMPRISING HIGH SOLUBILITY FORM OF REBAUDIOSIDE A AND METHOD OF MAKING” (Cargill Incorporated, priority 2009, published 2012).

What was measured:
[1] = Stability of aqueous solution of rebaudioside A crystal form; assay type: physicochemical; details: solution from Form 1 crystals containing more than about 1 g/100 g water
Source text: In some sweetening applications it is desirable to provide a sweetener composition of rebaudioside A that has a higher solubility in water than Form 2. […] Increased solubility in water allows more of the sweetener to be dissolved in a food product in order to provide the desired sweetness level. Increased solubility may be desirable in food products such as syrups and concentrates.

[2] = assay type: physicochemical
Procedure: (§1) 10 mg of sample was mixed with 0.5 mL deionized water and stirred by a magnetic stirrer at room temperature. As the solid was completely dissolved, more solid was added to the system with the increments of 10-40 mg until the solution became cloudy, which corresponded to the final concentration of 0.41 g/mL. The cloudy solution was filtered through a Millex-GV 0.22 um filter into a pre-weighted aluminum pan and the known mass of clear filtered solution was placed into an oven at 85° C. The solvent was completely evaporated and the residual solid was weighted to determine solubility.
as §1, with “16 mg of” for “10 mg of”, “mixed with 1 mL deionized” for “mixed with 0.5 mL deionized”, “water and was stirred by” for “water and stirred by”, “concentration of 0.4 g/mL. The” for “concentration of 0.41 g/mL. The”

Row | SMILES | Stability in solution (conversion of dissolved form) [1] | Concentration left in solution after conversion to Form 2 ([1]; after hours to days) | Solubility at 22° C. (grams/100 grams water) [2] [grams/100 grams water] | Solubility in water at 24° C. (typical, stated in text) [2]
1 | C=C1C[C@@]23CC[C@H]4[C@@](C)(CCC[C@@]4(C)C(=O)O[C@@H]4O[C@H](CO)[C@@H](O)[C@H](O)[C@H]4O)[C@@H]2CC[C@]1(O[C@@H]1O[C@H](CO)[C@@H](O)[C@H](O[C@@H]2O[C@H](CO)[C@@H](O)[C@H](O)[C@H]2O)[C@H]1O[C@@H]1O[C@H](CO)[C@@H](O)[C@H](O)[C@H]1O)C3 [Form 1, rebaudioside A] | tends to convert to Form 2 within hours to days | about 1 g/100 g water | – | –
2 | C=C1C[C@@]23CC[C@H]4[C@@](C)(CCC[C@@]4(C)C(=O)O[C@@H]4O[C@H](CO)[C@@H](O)[C@H](O)[C@H]4O)[C@@H]2CC[C@]1(O[C@@H]1O[C@H](CO)[C@@H](O)[C@H](O[C@@H]2O[C@H](CO)[C@@H](O)[C@H](O)[C@H]2O)[C@H]1O[C@@H]1O[C@H](CO)[C@@H](O)[C@H](O)[C@H]1O)C3 [Form 2, rebaudioside A] | – | – | 0.154 | ≤ 1 grams rebaudioside A/100 grams
